The test system of this data set is BT474 cell tumors (breast carcinoma cell line). Put plainly: In vivo efficacy, BT474 tumor bearing mice. On the set-up: species or system mouse. The procedure: In addition to the LISN xenograft efficacy studies, Example 57 has also been assessed in vivo in two other mouse models of cancer, including: Colo-205 tumor bearing mice (colon carcinoma cell line) and BT474 tumor bearing mice (breast carcinoma cell line). Forty female nude mice bearing Colo-205 tumors (average tumor size of 200 mm3) were randomized into five groups of eight mice and dosed with either vehicle (20% SBE pH3.5) or Example 57 at 100, 30, 10 mg/kg QD or 30 mg/kg BID for 21 days. The groups of mice dosed with the higher doses of Example 57 (100 mg/kg QD and 30 mg/kg BID) lost greater than 20% body weight within 10 days of dosing so were taken off the study and allowed to recover. […] The higher doses of 100 mg/kg QDx10 and 30 mg/kg BIDx10 achieved 72 and 49% tumor growth inhibition respectively.
Due to the body weight loss seen with the higher doses in the Colo-205 xenograft efficacy study, the dosing regime was altered for the follow up BT474 study. Forty female nude mice bearing subcutaneous BT474 cell tumors (average tumor size of 200 mm3) were randomized into five groups each containing eight mice and dosed with either vehicle (20% SBE pH3.5) or Example 57 at 60, 30 or 15 mg/kg QD or 15 mg/kg BID for 21 days. Note the maximal QD dose was reduced from 100 mg/kg to 60 mg/kg and the BID dose reduced from 30 mg/kg to 15 mg/kg. In addition to these changes the mice in this study were given weekend holidays from dosing.

Consider 1 compound from US20100216779A1 (GLAXOSMITHKLINE LLC, priority 2007, published 2010).

Consider `COc1cc(N2CCC(N3CCN(CCF)CC3)CC2)ccc1Nc1nccc(-c2c(-c3cccc(C(=O)Nc4c(F)cccc4F)c3)nc3ccccn23)n1` [Example 57, N-(2,6-difluorophenyl)-3-[3-(2-{[4-{4-[4-(2-fluoroethyl)-1-piperazinyl]-1-piperidinyl}-2-(methyloxy)phenyl]amino}-4-pyrimidinyl)imidazo[1,2-a]pyridin-2-yl]benzamide], for which the tumor growth inhibition (BT474, 15 mg/kg BIDx21, weekend holidays from dosing) is listed as 54%; the tumor growth inhibition (BT474, 30 mg/kg QDx21, weekend holidays from dosing) is on record as 37%; the tumor growth inhibition (BT474, 60 mg/kg QDx21, weekend holidays from dosing) was found to be 37%; the tumor growth inhibition (BT474, third QDx21 dose group (15 mg/kg QD per study design), weekend holidays from dosing) is recorded as 16%. Moreover, the body weight loss result (BT474, all groups) is listed as “no body weight loss”.
